In patent US9475789B2, “Use of polyenylpyrrole derivatives for treating inflammation” (WELLHEAD BIOLOGICAL TECHNOLOGY CORP., priority 2014, dated 2016):
“Also recorded” adds a separate entry of the source.

Experiments:
proIL-1β = test: Western blot of proIL-1β, LPS-activated J774A.1 macrophages; type: cell-based, mouse; conditions: compound 30 min, then LPS 6 h
Description: (§1) (A) J774A.1 macrophages (1×10^6/ml) and (B) peritoneal macrophages (1×10^5/ml) were incubated with compound 1h for 30 min followed by LPS (1 μg/ml) stimulating for 5.5 h, then the cells were stimulated with ATP (5 mM) for an additional 30 min. The IL-1β in the culture medium was measured by ELISA and the expression of active caspase-1 (p10) was measured by Western blot. In (C) and (D), J774A.1 macrophages (1×10^6/ml) were incubated with LPS (1 μg/ml) for 5.5 h, then cells were incubated with compound 1h for 30 min followed by stimulating with ATP (5 mM) for an additional 30 min. The IL-1β and IL-6 in the culture medium were measured by ELISA and the expression of active caspase-1 (p10) was measured by Western blot. In (E), J774A.1 macrophages (1×10^6/ml) were incubated with compound 1h for 30 min followed by LPS (1 μg/ml) stimulating for 6 h. The expression of NLRP3 and proIL-1β were measured by Western blot.
(§2) Whole cell lysates were separated by SDS-PAGE and electrotransferred to a PVDF membrane. The membranes were incubated in blocking solution—5% nonfat milk in phosphate buffered saline with 0.1% Tween 20—at room temperature for 1 h. Each membrane was incubated with a specific primary antibody at room temperature for 2 h. After washing three times in PBS with 0.1% Tween 20, the membrane was incubated with an HRP-conjugated secondary antibody directed against the primary antibody. […]

caspase-1 = test: Western blot of active caspase-1 (p10), LPS+ATP-activated J774A.1 macrophages; type: cell-based, mouse
Description: as §1, §2

ROS = test: Intracellular ROS production, LPS-activated RAW 264.7 macrophages; type: cell-based, murine; conditions: compound 1h 20 μM, NAC 10 mM, 30 min before LPS
Description: In (A), RAW 264.7 macrophages (5×10^5/ml) were incubated with compound 1h (20 μM), N-acetyl cysteine (NAC; 10 mM) or DMSO (vehicle) for 30 min followed by LPS (1 μg/ml) stimulating for the indicated time, then ROS levels were measured by detection of the fluorescence intensity of the fluorophore carboxyl-DCF and expressed relative to those at time zero. In (B), RAW 264.7 macrophages (5×10^5/ml) were incubated with compound 1h (20 μM) or DMSO for 30 min followed by LPS (1 μg/ml) stimulating for 0-60 min, then the phosphorylation levels of ERK1/2, JNK1/2, p38 were analyzed by Western blot. In (C), J774A.1 macrophages (5×10^5/ml) were incubated with compound 1h or DMSO for 30 min followed by LPS (1 μg/ml) stimulating for 20 min, then the phosphorylation levels of ERK1/2, JNK1/2, p38 were analyzed by Western blot.
Intracellular ROS stimulated by LPS was measured by detecting the fluorescence intensity of the 2′,7′-dichlorofluorescein diacetate (H2DCFDA) oxidized product (DCF) (Molecular Probes, Eugene, Oreg.). […] The relative fluorescence intensity of fluorophore DCF, formed by peroxide oxidation of the non-fluorescent precursor, was detected at an excitation wavelength of 485 nm and an emission wavelength of 530 nm with a microplate absorbance reader (Bio-Rad Laboratories, Inc).

TNF-α = TNF-α ELISA, LPS-activated JAWSII dendritic cells; type: cell-based, murine; conditions: LPS 1 μg/ml 24 h
Description: (A) J774A.1 macrophages (4×10^5/ml), (B) peritoneal macrophages (4×10^5/ml), and (C) JAWSII dendritic cells (4×10^5/ml) were incubated with compound 1h or DMSO for 30 min followed by stimulating with LPS (1 μg/ml) for 24 h, then IL-6 and TNF-α concentration in culture medium were assayed by ELISA. The data are expressed as the mean±SD for three separate experiments. *, **, and *** indicate a significant difference at the level of p<0.05, p<0.01, p<0.001 respectively compared to LPS group.
The effects of tested samples on IL-1β, TNF-α and IL-6 production were measured by ELISA according to the manufacturer's instruction. In brief, 50 μl of biotinylated antibody reagent and 50 μl of supernatant were added to an anti-mouse IL-1β, TNF-α and IL-6 precoated stripwell plate, and incubated at room temperature for 2 h. After washing the plate three times with washing buffer, 100 μl of diluted streptavidin-HRP concentrate was added to each well and incubated at room temperature for 30 min. The washing process was repeated; then 100 μl of a premixed tetramethylbenzidine substrate solution was added to each well and developed at room temperature in the dark for 30 min. Following the addition of 100 μl of stop solution to each well to stop the reaction, the absorbance of the plate was measured by a microplate reader at 450 nm wavelength.

iNOS = test: Western blot of iNOS protein in LPS-activated RAW 264.7 macrophages; type: cell-based, murine; conditions: LPS-activated RAW 264.7, compared with vehicle
Description: In (A) and (C), cells (5×10^5/ml) were incubated with polyenylpyrrole derivatives or DMSO (vehicle) for 30 min followed by stimulating with LPS (1 μg/ml) for 24 h, then NO (A), IL-6 and TNF-α (C) concentration in culture medium were assayed by Griess reaction and ELISA, respectively. In (B), cells (5×10^5/ml) were pretreated with polyenylpyrrole derivatives or DMSO for 30 min followed by stimulating with LPS (1 μg/ml) for 24 h, then the protein expression of iNOS and COX-2 were assayed by Western blot.
Whole cell lysates were separated by SDS-PAGE and electrotransferred to a PVDF membrane. The membranes were incubated in blocking solution—5% nonfat milk in phosphate buffered saline with 0.1% Tween 20—at room temperature for 1 h. Each membrane was incubated with a specific primary antibody at room temperature for 2 h. After washing three times in PBS with 0.1% Tween 20, the membrane was incubated with an HRP-conjugated secondary antibody directed against the primary antibody. The membrane was developed by an enhanced chemiluminescence Western blot detection system.

IL-1β = IL-1β ELISA, LPS+ATP-activated peritoneal macrophages; type: cell-based, C57BL/6 mice; conditions: primary peritoneal macrophages; compound before LPS and ATP
Description: as §1
The effects of tested samples on IL-1β, TNF-α and IL-6 production were measured by ELISA according to the manufacturer's instruction. […] Following the addition of 100 μl of stop solution to each well to stop the reaction, the absorbance of the plate was measured by a microplate reader at 450 nm wavelength.

O=c1cc(O)cc(/C=C/C=C/C=C/C=C/c2[nH]ccc2Cl)o1 [Compound 1h]
LPS-induced proIL-1β expression (proIL-1β): inhibited LPS-induced proIL-1β expression in a dose-dependent fashion
caspase-1 activation (caspase-1; J774A.1, compound before LPS and ATP treatment): significantly inhibited
caspase-1 activation (caspase-1; LPS-primed J774A.1, compound 30 min before ATP stimulation): not caspase-1 activation
LPS-stimulated ROS production (ROS): able to reduce LPS-stimulated ROS production
secretion of TNF-α (TNF-α): also reduced
expression of iNOS protein (iNOS): decreased production; also recorded: reduced the expression of iNOS protein
IL-1β inhibition activity (IL-1β): confirmed
